Consider four compounds from patent US10492491B2, “Insecticide composition including a synergistic agent” (priority 2015, dated 2019).

SMILES strings stand for the structures. Read-outs that look alike come from different tables or passages of the source.

Common to all, as to format: cell-based, Periplaneta americana
For test [1], the system named is cockroach Dorsal Unpaired Median (DUM) neurons. The following applies: for origin of the intracellular calcium concentration rise: with caffeine, omegaconotoxin, pirenzepine. A general note: A change in cytosolic calcium serves as a functional read-out for many receptors and channels.
For test [2] the test system is unchanged. The test can be described thus: Whole-cell patch-clamp, current-clamp: DUM neuron spontaneous electrical activity. The note with it: IR3535 at 10^-8 M; whole-cell configuration. As for the experimental part: (§1) Experiments were carried out on cockroach Dorsal Unpaired Median (DUM) neurons. Cockroach neuronal preparations are commonly used as biomedical models for vertebrates and invertebrates and DUM neurons are, furthermore, electrophysiologically and pharmacologically well characterized since most of the biophysical and pharmacological properties of ionic currents and receptors underlying and modulating their spontaneous action potentials have been established by using the well-known patch-clamp technique.
Adult male cockroaches, Periplaneta americana (see FIG. 1), are taken from our laboratory colonies, which are maintained under standard conditions (29° C., photoperiod of 12 h light/12 h dark). Animals are immobilized dorsal-side up on a dissection dish. The dorsal cuticle, gut and some dorso-longitudinal muscles are removed to allow access to the ventral nerve cord. The abdominal nerve cord and its terminal abdominal ganglion (TAG), carefully dissected under a binocular microscope, are placed in normal saline. Animal care and handling procedures are in accordance with French institutional and national health guidelines. […]
Electrical activity and neonicotinoïd-induced inward currents are recorded using the patch clamp technique in the whole-cell recording configuration under current-clamp and voltage-clamp mode, respectively. […] Signals are recorded with an Axopatch 200A amplifier. […]

The test system is the same in test [3]. The test can be described thus: Whole-cell patch-clamp, voltage-clamp: neonicotinoïd-induced inward currents. The following applies: for inward current amplitude after pretreatment with low concentration of IR3535 (conclusion): DUM neurons pretreated with low concentration of IR3535; for induced inward current, insecticide alone (conclusion): act like agonists. As for the experimental part:
as §1
Adult male cockroaches, Periplaneta americana (see FIG. 1), are taken from our laboratory colonies, which are maintained under standard conditions (29° C., photoperiod of 12 h light/12 h dark). Animals are immobilized dorsal-side up on a dissection dish. The dorsal cuticle, gut and some dorso-longitudinal muscles are removed to allow access to the ventral nerve cord. The abdominal nerve cord and its terminal abdominal ganglion (TAG), carefully dissected under a binocular microscope, are placed in normal saline. Animal care and handling procedures are in accordance with French institutional and national health guidelines.
The ventral nerve cord and its terminal abdominal ganglion (TAG) are carefully dissected under a binocular microscope and placed in normal cockroach saline containing (in mM) 200 NaCl, 3.1 KCl, 5 CaCl2, 4 MgCl2, 50 sucrose, and 10 […] (HEPES); pH was adjusted to 7.4 with NaOH. Isolation of adult DUM neuron cell bodies are performed under sterile conditions using enzymatic digestion and mechanical dissociation of the median parts of the TAG as previously described in Lapied et al. (Ionic species involved in the electrical activity of single adult aminergic neurones isolated from sixth abdominal ganglion of cockroach Periplaneta americana J Exp Biol 144:535-49, 1989). The isolated neuron cell bodies are used for recordings 24 h after dissociation.
Electrical activity and neonicotinoïd-induced inward currents are recorded using the patch clamp technique in the whole-cell recording configuration under current-clamp and voltage-clamp mode, respectively. Patch-clamp electrodes are pulled from borosilicate glass capillary tubes (GC150T-10) using a P-97 model puller. Patch pipettes have resistances ranging from 1 to 1.2 MΩ when filled with internal pipette solution. The liquid junction potential between extracellular and intracellular solutions is always corrected before the formation of a giga Ohm seal (>3 GΩ). Signals are recorded with an Axopatch 200A amplifier. […] Under voltage-clamp conditions, DUM neuron somata are voltage-clamped at a steady state holding potential of −50 mV to measure the effects of thiamethoxam or thiacloprid applied alone and after pretreatment with IR3535® (10^−8 M). Experiments are carried out at room temperature.

Where [4] appears, read: thiamethoxam 10^-6 M, pretreated with IR3535 10^-8 M.

Consider `CCN(CC)C(=O)c1cccc(C)c1` [DEET, N,N-diethyl-3-methylbenzamide], for which the “ratio of emitted fluorescence (340 nm/380 nm), maximum value” in test [1] (DEET at 10^-7 M (maximum)) is on record as 0.7. Moreover, in test [1] (DEET between 3.10^-8 M and 3.10^-7 M), the “ratio of emitted fluorescence (340 nm/380 nm)” value is given as “above 0.6”. Further, in test [1] (DEET from 10^-9 M to 10^-7 M), the “effect on intracellular calcium concentration, low concentration range” value is listed as “elevation of the intracellular calcium concentration”. In addition, the “effect on intracellular calcium concentration, higher concentrations” value in test [1] (DEET higher than 10^-7 M) is “important decrease of the intracellular calcium concentration”. Moreover, the “concentration giving the maximum elevation of intracellular calcium concentration” value in test [1] (DEET low concentration range) is listed as 10^−7 M.
As for `CCCCN(CCC(=O)OCC)C(C)=O` [IR3535®, 3-[N-Butyl-N-acetyl]-aminopropionic acid, ethyl ester], the “lower concentration which produces a significant elevation of intracellular calcium concentration” value in test [1] (DUM neurons) was 10^−8 M. The “origin of the intracellular calcium concentration rise” value in test [1] (IR3535 at 10^-8 M) is reported as “extracellular calcium through plasma membrane voltage-dependent calcium channels via M1/M3 mAChR sub-type modulation”. For the same compound, the “effect on intracellular calcium concentration, zone I” value in test [1] (IR3535 between 3.10^-9 M and 3.10^-8 M, bath application) is on record as “transient increase of intracellular calcium concentration”. Further, the “effect on intracellular calcium concentration, zone II” value in test [1] (IR3535 from 10^-7 M to 3.10^-6 M) is listed as “additional elevation of intracellular calcium concentration”. Besides, the “origin of the intracellular calcium concentration rise” value in test [1] (higher concentrations of IR3535 (10^-5 M)) was “both extracellular calcium and calcium released from internal stores”. The “concentration giving the maximum of the zone I intracellular calcium increase” value in test [1] (zone I (3.10^-9 M to 3.10^-8 M)) is 10^−8 M. In addition, in test [1] (zone III, very high concentration), the “concentration giving the maximum effect on intracellular calcium, zone III” value is listed as 3.10^−5 M. In addition, in test [2], the “effect on membrane potential” value is “significant membrane depolarization” and the “effect on spontaneous action potential discharge frequency” value is reported as “increase of the spontaneous action potential discharge frequency”.
On to `N#C/N=C1\SCCN1Cc1ccc(Cl)nc1` [thiacloprid], for which, in test [3] (DUM neuron pretreated with IR3535 10^-8 M), the “concentration giving the maximum increase of inward current amplitude after IR3535 pretreatment” value is reported as 10^−6 M. Besides, in test [3], the “inward current amplitude after pretreatment with low concentration of IR3535 (conclusion)” value is “more important”. Besides, the “induced inward current, insecticide alone (conclusion)” value in test [3] (alone) was “inward current with a small amplitude”. In test [3] (alone, holding potential -50 mV), the “concentration giving the maximum effect on inward current amplitude, applied alone” value is 10^−3 M. The “effect on inward current amplitude, applied alone” value in test [3] (bath application alone, holding potential -50 mV) was “dose-dependent increase of the inward current amplitude”. The “effect on inward current amplitude at higher concentration after IR3535 pretreatment” value in test [3] (thiacloprid 10^-5 M, pretreated with IR3535 10^-8 M) is “important decrease of the current amplitude”.
Turning to `CN1COCN(Cc2cnc(Cl)s2)/C1=N\[N+](=O)[O-]` [thiamethoxam], the “induced inward current, applied alone” value in test [3] (10^-6 M alone, holding potential -50 mV, n=3-4) is reported as “inward current with small amplitudes”. For the same compound, in test [3], the “inward current amplitude after pretreatment with low concentration of IR3535 (conclusion)” value is “more important”. Moreover, the “induced inward current, insecticide alone (conclusion)” value in test [3] (alone) is “inward current with a small amplitude”. In test [3] (setting [4]), the “effect of IR3535 pretreatment on induced inward current amplitude” value is listed as “important increase of the thiamethoxam-induced inward current amplitude” and the “mean current amplitude after IR3535 pretreatment relative to applied alone” value was “about 6 fold”.
